Where a name gives a salt, the structure may show the parent alone.
What was measured:
[1] = Drug elution testing (in vitro release) of PLGA films; format: physicochemical; settings: all prototypes, phase 2
Description: The main goals are summarized below: • 1. Prepare placebo films with multiple grades of PLGA polymers (Table 1) using solvent casting method. Evaluate both single and dual layer film designs. • 2. […] Create HPLC assay and drug elution method based on provided information. Optimize method for use in formulation development.

[2] = Solubility in water (distilled and deionized water); format: physicochemical; settings: 20 °C, pH 7, water, neutral pH, i.e. pH of 7 at room temperature
Description: Solubility is a chemical property of a molecule in a specific solvent which depends on the chemistry of the two and on the environmental conditions of temperature and pH. […] This at room temperature (20 deg) or body temperature (37 deg) and a pH of 7. Solubility is measured in distilled and deionized water and is given in mg/mL.

Row | degradation during elution testing [1] | solubility [2] [µg/mL] | SMILES
1 | Significant degradation | – | CN(C)c1ccc(O)c2c1C[C@H]1C[C@H]3[C@H](N(C)C)C(O)=C(C(N)=O)C(=O)[C@@]3(O)C(O)=C1C2=O [Minocycline HCl, Minocycline Hydrochloride]
2 | – | ≤ 2500 | CO[C@H]1/C=C/O[C@@]2(C)Oc3c(C)c(O)c4c(O)c(c(/C=N/N5CCN(C)CC5)c(O)c4c3C2=O)NC(=O)/C(C)=C\C=C\[C@H](C)[C@H](O)[C@@H](C)[C@@H](O)[C@@H](C)[C@H](OC(C)=O)[C@@H]1C [Rifampicin]

Source: patent US20260108455A1, “DEVICE FOR SUSTAINED CONTROLLED RELEASE OF A […] ACTIVE SUBSTANCE AND USES THEREOF” (Hylomorph AG, priority 2022, published 2026)
